Experimental data from article PMC9855884, “Glycosylated Lipopeptides—Synthesis and Evaluation of Antimicrobial Activity and Cytotoxicity” (Biomolecules, 2023).
≈ marks a conversion by molar mass, not a printed value. Where a SMILES comes first, the peptide text is derived from it. The star is where a group is joined. βGlcNAc = CC(=O)N[C@@H]1[C@@H](O)[C@H](O)[C@@H](CO)O[C@H]1*; Stearoyl = CCCCCCCCCCCCCCCCCC(=O)*; Palmitoyl = CCCCCCCCCCCCCCCC(=O)*; Myristoyl = CCCCCCCCCCCCCC(=O)*

Key:
[1] = Determination of peptide hydrophobicity with RP-HPLC (adjusted retention time); assay type: physicochemical; conditions: RP-HPLC as measure of hydrophobicity; Waters X-Bridge Shield RP-18 3.0 × 100 mm, 3.5 μm; linear 20–80% acetonitrile in water over 30 min, 0.1% TFA; 0.5 mL/min; 25.0 °C; peptide 1 g/L in water (0.1% TFA); UV 214 nm; triplicate
Description: To determine peptide hydrophobicity, a Waters Alliance e2695 system with a Waters 2998 PDA Detector was used. All analyses were carried out on a Waters X-Bridge Shield RP-18 column (3.0 × 100 mm, 3.5 μm particle size, 130 Å pore size). The peptides were dissolved in water (0.1% TFA, v/v) up to a concentration of 1 g/L. UV detection at 214 nm was used, and samples (10 μL) were eluted with a linear 20–80% acetonitrile gradient in deionized water over 30 min at 25.0 ± 0.1 °C. The mobile phase flow rate was 0.5 mL/min. Both eluents contained 0.1% (v/v) of TFA. Each peptide sample was analyzed in triplicate. Maximum standard deviation and coefficient of variation were 0.046 and 0.23%, respectively.
After synthesis and purification, all the products were analyzed with MS and HPLC to confirm purity and identity of the compounds. […] The chromatographic analyses were performed with RP-HPLC; retention time refers to hydrophobicity of the lipopeptide.

E. faecium ATCC 700221 = assay type: cell-based, Enterococcus faecium; conditions: ATCC 700221, 18 h
Description: (§1) The Acinetobacter baumannii ATCC BAA-1605, Enterococcus faecium ATCC 700221, Klebsiella aerogenes ATCC 13048, Klebsiella pneumoniae ATCC 700603, Pseudomonas aeruginosa ATCC 9027, Staphylococcus aureus ATCC 33591, Candida glabrata ATCC 15126, strains were acquired from the American Type Culture Collection (ATCC). All the strains were stored at −80 °C in Roti-Store cryo vials and were transferred into fresh Mueller–Hinton broth (MHB, Becton Dickinson, Warsaw, Poland) for bacteria or RPMI-1640 (Sigma-Aldrich, Steinheim, Germany) for fungi before the tests and incubated for 24 h at 37 °C. Then, the cultures were seeded on the Mueller–Hinton agar (BioMaxima, Lublin, Poland) or Sabouraud dextrose agar (SDA, BioMaxima, Lublin, Poland) plates, respectively, and incubated as just mentioned. These agar cultures were used for further microbiological assays. Cell densities for all assays were adjusted spectrophotometrically (Multiskan GO Microplate Spectrophotometer, Thermo Fisher Scientific, Vantaa, Finland) at 600 and 530 nm for bacteria and fungi, respectively.
(§2) The MICs were determined using a broth microdilution method according to the Clinical and Laboratory Standard Institute guidelines. For this purpose, initial inoculums of bacteria (5 × 10^5 CFU/mL) in MHB and yeasts (2 × 10^3 CFU/mL) in RPMI-1640 with 2% D-glucose were exposed to the ranging concentration of lipopeptides (1–512 μg/mL) and incubated at 37 °C for 18 h and 24 h, respectively. The experiments were conducted on 96-well microtiter polystyrene plates (Kartell, Italy). The growth was assessed visually after incubation and the MIC was assumed as the lowest peptide concentration at which a noticeable growth of microorganisms was inhibited. All experiments were conducted in triplicate.

S. aureus ATCC 33591 = assay type: cell-based, Staphylococcus aureus; conditions: ATCC 33591, 18 h
Description: as §1, §2

[2] = tested on: K. pneumoniae ATCC 700603; assay type: cell-based, Klebsiella pneumoniae; conditions: ATCC 700603, 18 h
Description: as §1, §2

[3] = tested on: A. baumannii ATCC BAA 1605; assay type: cell-based, Acinetobacter baumannii; conditions: ATCC BAA 1605, 18 h
Description: as §1, §2

P. aeruginosa ATCC 9027 = assay type: cell-based, Pseudomonas aeruginosa; conditions: ATCC 9027, 18 h
Description: as §1, §2

C. glabrata ATCC 15126 = assay type: cell-based, Candida glabrata; conditions: ATCC 15126, 24 h
Description: as §1, §2

S. aureus biofilm = assay type: cell-based, Staphylococcus aureus; conditions: 24 h
Description: as §1
(§3) The MBECs were determined as previously described, using 96-well polystyrene flat-bottom plates. For this purpose, 24 h cultures of microorganisms were diluted to obtain a final density of 5.0 × 10^5 CFU/mL and 2.0 × 10^5 CFU/mL of bacteria and fungi, respectively. Microorganisms were diluted in MHB or RPMI-1640 with 2% D-glucose (bacteria and fungi, respectively). Briefly, 100 µL of cell suspension was added into the test plates. After 24 h of incubation at 37 °C, the wells were rinsed three times with a phosphate buffer saline (PBS, pH 7.4) to remove non-adherent cells. Subsequently, 100 μL of the test compounds over the concentration range (1–512 μg/mL) were added to each well. After 24 h of incubation at 37 °C, 20 μL of a cell viability reagent was added (resazurin, 4 g/L; Sigma Aldrich, St. Louis, MO, USA). The MBEC was read after 1 h. The determined values were recorded as the lowest concentration at which the reduction of resazurin (from blue to pink) […]. All experiments were conducted in triplicate.

K. pneumoniae biofilm = assay type: cell-based, Klebsiella pneumoniae; conditions: 24 h
Description: as §1, §3

A. baumannii biofilm = assay type: cell-based, Acinetobacter baumannii; conditions: 24 h
Description: as §1, §3

P. aeruginosa biofilm = assay type: cell-based, Pseudomonas aeruginosa; conditions: 24 h
Description: as §1, §3

C. glabrata biofilm = assay type: cell-based, Candida glabrata; conditions: 24 h
Description: as §1, §3

SMILES | Adjusted Retention Time [1] [min] | MIC (E. faecium ATCC 700221) [µg/mL] | MIC (S. aureus ATCC 33591) [µg/mL] | MIC [2] [µg/mL] | MIC [3] [µg/mL] | MIC (P. aeruginosa ATCC 9027) [µg/mL] | MIC (C. glabrata ATCC 15126) [µg/mL] | MBEC (S. aureus biofilm) [µg/mL] | MBEC (K. pneumoniae biofilm) [µg/mL] | MBEC (A. baumannii biofilm) [µg/mL] | MBEC (P. aeruginosa biofilm) [µg/mL] | MBEC (C. glabrata biofilm) [µg/mL]
CCCCCCCCCCCCCCCC(=O)N[C@@H](CCCNC(=N)N)C(=O)N[C@@H](CCCNC(=N)N)C(=O)N[C@@H](CO[C@@H]1O[C@H](CO)[C@@H](O)[C@H](O)[C@H]1NC(C)=O)C(N)=O [Peptide 15, C16-RRS(GlcNAc)-NH2] (Palmitoyl-Arg-Arg-Ser(βGlcNAc)-NH2) | 18.80 | 8 (≈ 9.32 µM) | 16 (≈ 18.6 µM) | 256 (≈ 298 µM) | 32 (≈ 37.3 µM) | 64 (≈ 74.6 µM) | 16 (≈ 18.6 µM) | – | – | – | – | –
CCCCCCCCCCCCCCCCCC(=O)N[C@@H](CCCNC(=N)N)C(=O)N[C@@H](CO[C@@H]1O[C@H](CO)[C@@H](O)[C@H](O)[C@H]1NC(C)=O)C(=O)N[C@@H](CCCNC(=N)N)C(N)=O [Peptide 17, C18-RS(GlcNAc)R-NH2] (Stearoyl-Arg-Ser(βGlcNAc)-Arg-NH2) | 22.50 | 8 (≈ 9.03 µM) | 16 (≈ 18.1 µM) | 16 (≈ 18.1 µM) | 16 (≈ 18.1 µM) | 32 (≈ 36.1 µM) | 4 (≈ 4.51 µM) | 128 | 256 | 512 | >512 | 64
CCCCCCCCCCCCCCCC(=O)N[C@@H](CCCNC(=N)N)C(=O)N[C@@H](CO)C(=O)N[C@@H](CCCNC(=N)N)C(N)=O [Peptide 5, C16-RSR-NH2] (Palmitoyl-Arg-Ser-Arg-NH2) | 19.93 | 8 (≈ 12.2 µM) | 8 (≈ 12.2 µM) | 64 (≈ 97.7 µM) | 32 (≈ 48.9 µM) | 64 (≈ 97.7 µM) | 8 (≈ 12.2 µM) | – | – | – | – | –
CCCCCCCCCCCCCC(=O)N[C@@H](CO[C@@H]1O[C@H](CO)[C@@H](O)[C@H](O)[C@H]1NC(C)=O)C(=O)N[C@@H](CCCNC(=N)N)C(=O)N[C@@H](CCCNC(=N)N)C(N)=O [Peptide 10, C14-S(GlcNAc)RR-NH2] (Myristoyl-Ser(βGlcNAc)-Arg-Arg-NH2) | 14.47 | 32 (≈ 38.6 µM) | 64 (≈ 77.1 µM) | >512 | 128 (≈ 154 µM) | 256 (≈ 308 µM) | 256 (≈ 308 µM) | – | – | – | – | –
CCCCCCCCCCCCCCCC(=O)N[C@@H](CCCNC(=N)N)C(=O)N[C@@H](CO[C@@H]1O[C@H](CO)[C@@H](O)[C@H](O)[C@H]1NC(C)=O)C(=O)N[C@@H](CCCNC(=N)N)C(N)=O [Peptide 14, C16-RS(GlcNAc)R-NH2] (Palmitoyl-Arg-Ser(βGlcNAc)-Arg-NH2) | 18.63 | 16 (≈ 18.6 µM) | 16 (≈ 18.6 µM) | 128 (≈ 149 µM) | 32 (≈ 37.3 µM) | 32 (≈ 37.3 µM) | 16 (≈ 18.6 µM) | – | – | – | – | –
CCCCCCCCCCCCCC(=O)N[C@@H](CCCNC(=N)N)C(=O)N[C@@H](CCCNC(=N)N)C(=O)N[C@@H](CO)C(N)=O [Peptide 3, C14-RRS-NH2] (Myristoyl-Arg-Arg-Ser-NH2) | 15.91 | 8 (≈ 12.8 µM) | 16 (≈ 25.5 µM) | 512 (≈ 817 µM) | 64 (≈ 102 µM) | 64 (≈ 102 µM) | 32 (≈ 51 µM) | – | – | – | – | –
